Earlier results on one compound are cited in patent US20210393726A1, “USE OF EXTRACT OF VEGETATION WATERS IN THE REGENERATION OF EPITHELIAL TISSUE” (FATTORIA LA VIALLAD DI GIANNI, ANTONIO E BANDINO LO FRANCO …, priority 2017, published 2021).

The conditions of this series: high concentrations, up to 250-500 mg/kg/day.

Regarding `OCCc1ccc(O)c(O)c1` [Hydroxytyrosol, hydroxytyrosol], the “toxic effect on in vivo administration” value is “does not have any toxic effect”.
